Reference: patent US20080009448A1, “Peptide Derivative” (priority 2006, published 2008)
Where two headings read alike, the source gives them in different places.

Assays:
[1] = system: heat nociceptive stimulation; assay: Anti-nociceptive activity test, tail-flick method; format: in vivo, mouse; settings: for ED50: Mus musculus; for ED50 / activity-peak time after the oral administration / activity-peak time after the subcutaneous administration / Oral ED50 / Subcutaneous ED50: mice; for ED50 / Oral ED50 / Subcutaneous ED50: at activity-peak time, parentheses = 95% confidence limit
Experimental: (1) Experimental animal, male ddy mice (Japan SLC), weighing the body weight in the range of 22 to 25 g, were used for the studies. The animals had been kept under constant conditions (room temperature 22±2° C., humidity 55±5%, 12 hours light-and-dark cycle having light time 9:00 to 21:00 and dark time 21:00 to 9:00) until used for an experiment. The animals were fed the mouse solid diet (F2, Funabashi farm. Funabashi, Japan) with unrestricted tap water intake.
SS8225-01, 02, 03 04, 05, 06, 07 and 08 as examples and SS8225-09, 10, 11 and 12 as comparison examples were used as the administered drugs. […] In addition only Liger solution was administered as an experimental control. The animals were left for 60 minutes in the plastic cage to become familiar to the environment prior to the test in which measured a latent time for each mouse before drug administration in accordance with a tail-flick method noted below. Heat was radiated to a part of each mouse tail which is 2 cm from the end of its tail. Each of heat radiation periods before beginning of tail-flick was measured as a false pain threshold. Mice which responded to the stimulation within 2.5 to 3.5 seconds were pre-selected for the test. Administration solution under one administration condition for one kind of drug was administered to one experimental animal group including 10 mice. After the body weight of each mouse was measured, each volume of the administration solution was adjusted to be 0.1 mL/10 g of mouse body weight and then the solution was administered. The administration methods were two methods of subcutaneous administration (s. c.) and oral administration (p. o.). On subcutaneous administration, the administration solution of 0.1 mL per 10 g of body weight (0.1 mL/10 g) was injected into the back of the mouse using 27 gauge needle. On oral administration, the administration solution of 0.1 mL per 10 g of body weight (0.1 mL/10 g) was administered using an oral sonde.
Heat was radiated to a part of each mouse's tail of respective experimental group, which is 2 cm from the end of its tail, at 15, 30 and 60 minutes after the drug administration according to the preset measurement interval and a latent time until respective mouse swung its tail was measured as a false pain threshold value. The maximum stimulation period (cut-off-time) was set as 10 seconds to minimize the damage to the stimulation part. The anti-nociceptive effect was evaluated quantitatively by calculating % MPE (% of maximum possible effect) according to the following formula. [formula] T1: A latent time until beginning of tail-flick before respective drug administration (seconds) T2: A latent time until beginning of tail-flick after respective drug administration (seconds) Tc: A maximum stimulation period (cut-off-time)
The graphs (FIG. 1, FIG. 3, FIG. 5, FIG. 7, FIG. 9, FIG. 11, FIG. 13, FIG. 15, FIG. 17, FIG. 19, FIG. 21, FIG. 23, FIG. 25, FIG. 27, FIG. 29, FIG. 31, FIG. 33 and FIG. 35) showing a time-course variation of % MPE were created, in which a vertical axis is an average value with a standard error (means ±S. E. M.) obtained by calculation of % MPE of respective animals of 10 mice every administration condition of respective drugs and a horizontal axis is a time after administration. After treating % MPE data of each animal of experimental groups with respective doses and % MPE data of each animal of the experimental group with a control Ringer's solution at the same measurement time every drugs using the two-way layout dispersion analysis (two-way ANOVA), the hazard-ratio of P<0.05 was decided to be a significant difference according to Bonferroni post-test.
A lasting time of anti-nociceptive activity of each drug in the present description is the lasting time of anti-nociceptive activity under the dose condition providing the longest lasting time.
ED50 is represented in the unit of mg/Kg.

[2] = system: MSU induced knee osteoarthritis pain; assay: MSU induced knee osteoarthritis pain model, hind leg paw-pressure ratio; format: in vivo, rat; parameters: key to AUC of time-course variation of anti-nociceptive activity: AUC of the time course of anti-nociceptive activity as % MPE; settings: rat, MSU knee model; for ED50: range in parentheses
Experimental: Experimental animal, male SD type rats, weighing the body weight in the range of 170 to 190 g, were used for the studies. The animals had been kept under constant conditions (room temperature 23±1° C., humidity 52±2%, 12 hours light-and-dark cycle having light time 7:00 to 19:00 and dark time 19:00 to 7:00) until used for an experiment. The animals were fed the mouse solid diet (F2, Funabashi farm. Funabashi, Japan) with unrestricted tap water intake, and kept in captivity for at least more than two days in a laboratory.
Any test drugs were dissolved in Ringer's solution (Fuso Yakuhin) to be used.
MSU was suspended with the suspension solution (10% of polyoxyethylene sorbitan mono-oleate (Tween 80: Nakarai Tesk) as 0.1 g per 1 mL. The animal was anesthetized with diethyl ether and after the surface of its left hind leg knee joint was wiped with 70% ethanol cotton, a porous administration of the suspension solution above noted was conducted into the cavity of let hind leg knee joint.
Pressures to both hind leg paw were measured using a paw-pressure measurement apparatus and recorded. Measurement time at respective times was 4.5 seconds. Calculated paw-pressure ratio (ppr) is a value calculated by dividing the pressure on the left hind leg by the pressure on the right hind leg according to the measured pressures on both hind legs.
The anti-nociceptive effect was evaluated quantitatively by calculating % MPE (% of maximum possible effect) according to the following formula. [formula]
In the formula, ppr 0 and ppr 1 are respective paw-pressure ratios on both hind legs before and after administration. ED50 value of anti-nociceptive activity was calculated using GraphPad Prism data-graph processing software version 4.0, San Diego, Calif., USA.
The strength of anti-nociceptive activity was represented by calculating the time-course variation of anti-nociceptive activity AUC using GraphPad Prism noted above.
Paw-pressure was measured twice at 4 hours after administration to provide ppr by calculation and the average of those values was both hind leg paw-pressure ratio before the drug administration. After the measurement of both hind leg paw-pressure before the drug administration, 0.1 mL of Ringer's solution or a test drug in Ringer's solution per 100 g rat body weight was orally administered, and then a paw-pressure was measured once every unit time after the oral administration.
Statistical processing was conducted using GraphPad Prism. After the two-way layout dispersion analysis, the hazard-ratio of P<0.05 was decided to be a significant difference according to Bonferroni post-test. The hazard-ratios were distinguished into less than 5% (P<0.05) and less than 1% (P<0.01) and represented as “*” and “**” in the same manner conducted for the Tail-flick method.

male ddy mouse = assay: Evaluation of acute toxicity; settings: s.c.; for Number of mice died (out of five): within 72 to 96 hours
Experimental: Mice weighing in the range of 22 to 25 g, male ddy mouse, were employed. Number of mice out of five mice in each group that died within 72 to 96 hours recorded.

[3] = s.c., doses of 0.5 mg/Kg and 0.25 mg/Kg

With `COc1ccc2c3c1O[C@H]1C(=O)CC[C@@]4(O)[C@@H](C2)N(C)CC[C@]314` [Oxycodone] the ED50 ([1]; po, p.o., read-out: Oral ED50) was 7.82 mg/kg, the ED50 ([1]; sc, s.c., read-out: Subcutaneous ED50) was 1.21 mg/kg and the “activity-peak time after the oral administration” value ([1]; p.o.) was 45 min. For the same compound, the “activity-peak time after the subcutaneous administration” value ([1]; s.c.) was 30 min, the “lasting time of anti-nociceptive activity” value (shortened to “lasting time”) ([1]; p.o., dose of 20 mg/Kg) was 5 h and the “lasting time” value ([1]; s.c., dose of 1.75 mg/Kg) was 1.5 h. For the same compound, the “activity lasting-time, times longer than for morphine” value ([2]; oral) was 0.4 times, the activity peak ([2]; oral) was 60 min and the “AUC of time-course variation of anti-nociceptive activity” value (from here on “AUC”) ([2]; oral 7.5 mg/kg) was 2525. The “AUC” value ([2]; oral 15 mg/kg) was 6363, the “AUC” value ([2]; oral 30 mg/kg) was 10562 and the ED50 ([2]; oral, %MPE, read-out: ED50 value at activity peak) was 10.3 mg/kg. The “anti-nociceptive activities, times stronger than for morphine” value ([2]; oral, from ED50 of AUCs) was “approximately 1.8 times”, the ED50 ([2]; oral, read-out: ED50 of AUCs) was 49.4 mg/kg and the “anti-nociceptive activity lasting-times, times longer than for morphine” value ([2]; oral, stated after ED50 at activity peak) was 3.6 times. The activity lasting-time ([2]; orally administered) was 120 min.

`CC(=N)N[C@@H](Cc1ccc(O)cc1)C(=O)N[C@H](CC[S+](C)[O-])C(=O)N[C@@H](Cc1ccccc1)C(=O)N(C)CCC(N)=O` (stereo partly drawn) [SS8225-04, Iminoethyl-[Tyr]-[D-Met(O)]-[Phe]-[N-MeβAla]-NH2] was tested, and the “Lethality (%)” value (male ddy mouse; dosage 6.25 mg/Kg (125 times the ED50)) was 0%, the “Number of mice died (out of five)” value (male ddy mouse; dosage 6.25 mg/Kg) was 0 and the “Lethality (%)” value (male ddy mouse; dosage 25 mg/Kg (500 times the ED50)) was 0%. The “Number of mice died (out of five)” value (male ddy mouse; dosage 25 mg/Kg) was 0, the “Lethality (%)” value (male ddy mouse; dosage 50 mg/Kg (1000 times the ED50)) was 20% and the “Number of mice died (out of five)” value (male ddy mouse; dosage 50 mg/Kg) was 1. The “Lethality (%)” value (male ddy mouse; dosage 100 mg/Kg (2000 times the ED50)) was 20%, the “Number of mice died (out of five)” value (male ddy mouse; dosage 100 mg/Kg) was 1 and the acute toxicity (male ddy mouse; mice) was “satisfactorily low”.

With “Iminoethyl-[DMT]-[D-Arg]-[Phe]-[N-MeLys]-OH [SS8225-12]” the “Oral ED50” value ([1]; p.o.) was over 10 mg/kg, the “Oral ED50” value ([1]; p.o., listed as Comparison Example 6) was “over 10 mg/Kg” and the “Subcutaneous ED50” value ([1]; s.c.) was over 0.5 mg/kg. For the same compound, the “Subcutaneous ED50” value ([1]; s.c., listed as Comparison Example 6) was “over 0.5 mg/Kg”.

With “Iminoethyl-[DMT]-[D-Arg]-[Phe]-[N-MeβAla]-NH2 [SS8225-01]” the “Oral ED50” value ([1]; p.o.) was over 10 mg/kg, the “activity-peak time after the subcutaneous administration” value ([1]; s.c.) was 90 min and the “Subcutaneous ED50” value ([1]; s.c.) was 0.12 mg/kg. The “lasting time” value [1, 3] was “not less than 7 hours”.

For “Iminoethyl-[DMT]-[D-Met(O)]-[Phe]-[N-MeLys]-NH2 [SS8225-05]”, the “Oral ED50” value ([1]; p.o.) was over 10 mg/kg, the “activity-peak time after the subcutaneous administration” value ([1]; s.c.) was 120 min and the “Subcutaneous ED50” value ([1]; s.c.) was 0.10 mg/kg. The “lasting time” value ([1]; s.c., dose of 0.25 mg/Kg) was 7 h.

For “Iminoethyl-[DMT]-[D-Met(O)]-[Phe]-[N-MeβAla]-NH2 [SS8225-03]”, the “Oral ED50” value ([1]; p.o.) was over 10 mg/kg, the “activity-peak time after the subcutaneous administration” value ([1]; s.c.) was 90 min and the “Subcutaneous ED50” value ([1]; s.c.) was 0.08 mg/kg. For the same compound, the “lasting time” value [1, 3] was 7 h.

For “Iminoethyl-[Tyr]-[D-Arg]-[Phe]-[N-MeβAla]-NH2 [SS8225-02]”, the “activity-peak time after the oral administration” value ([1]; p.o.) was 240 min, the “Oral ED50” value ([1]; p.o.) was 4.0 mg/kg and the “activity-peak time after the subcutaneous administration” value ([1]; s.c.) was 90 min. The “Subcutaneous ED50” value ([1]; s.c.) was 0.06 mg/kg, the “lasting time” value ([1]; p.o., dose of 10 mg/Kg) was 10 h and the “lasting time” value ([1]; s.c., dose of 0.125 mg/Kg) was 6 h.

With “Iminoethyl-[Tyr]-[D-Met(O)]-[Phe]-[N-MeLys]-NH2 [SS8225-06]” the “activity-peak time after the oral administration” value ([1]; p.o.) was 120 min, the “Oral ED50” value ([1]; p.o.) was 6.02 mg/kg and the “activity-peak time after the subcutaneous administration” value ([1]; s.c.) was 90 min. For the same compound, the “Subcutaneous ED50” value ([1]; s.c.) was 0.18 mg/kg, the “lasting time” value ([1]; p.o., dose of 10 mg/Kg) was “not less than 17 hours” and the “lasting time” value ([1]; s.c., dose of 0.25 mg/Kg) was 5 h.

With “Iminoethyl-[Tyr]-[D-Met(O)]-[Phe]-[N-MeLys]-NHCH3 [SS8225-08]” the “Oral ED50” value ([1]; p.o.) was over 10 mg/kg, the “activity-peak time after the subcutaneous administration” value ([1]; s.c.) was 90 min and the “Subcutaneous ED50” value ([1]; s.c.) was 0.1 mg/kg. For the same compound, the “lasting time” value ([1]; s.c., dose of 0.25 mg/Kg) was 5 h.

“Iminoethyl-[Tyr]-[D-Met(O)]-[Phe]-[N-MeLys]-OH [SS8225-11]” was tested, and the “Oral ED50” value ([1]; p.o.) was over 10 mg/kg, the “Oral ED50” value ([1]; p.o., listed as Comparison Example 5) was “over 10 mg/Kg” and the “Subcutaneous ED50” value ([1]; s.c.) was over 0.5 mg/kg. The “Subcutaneous ED50” value ([1]; s.c., listed as Comparison Example 5) was “over 0.5 mg/Kg”.

With “[DMT]-[D-Arg]-[Phe]-[N-MeLys]-NH2 [SS8225-09]” the “Oral ED50” value ([1]; p.o.) was over 10 mg/kg, the “Oral ED50” value ([1]; p.o., listed as Comparison Example 3) was “over 10 mg/Kg” and the “activity-peak time after the subcutaneous administration” value ([1]; s.c.) was 90 min. For the same compound, the “Subcutaneous ED50” value ([1]; s.c.) was 0.44 mg/kg and the “lasting time” value ([1]; s.c., dose of 1 mg/Kg) was 5 h.

In the case of “[DMT]-[D-Met(O)]-[Phe]-[N-MeLys]-NH2 [SS8225-10]”, the “Oral ED50” value ([1]; p.o.) is reported as over 10 mg/kg, the “Oral ED50” value ([1]; p.o., listed as Comparison Example 4) is reported as “over 10 mg/Kg” and the “activity-peak time after the subcutaneous administration” value ([1]; s.c.) is reported as 90 min. For the same compound, the “Subcutaneous ED50” value ([1]; s.c.) was 0.28 mg/kg and the “lasting time” value ([1]; s.c., dose of 0.5 mg/Kg) was 6 h.
